# Laboratory results taken from PMC11968843, “Sulphostin-inspired N-phosphonopiperidones as selective covalent DPP8 and DPP9 inhibitors” (Nature Communications, 2025).
# Several values for one entry are separate records, joined by “and”; a condition that tells them apart may be missing. Equal entries are not always repeated.
# Experiments:
# DPP8 [1] = target: T1, DPP8 (Homo sapiens, UniProt Q6V1X1); assay: biochemical; format: biochemical
# T1 construct: purchased Proteros Biostructures GmbH, Germany
# T1 sequence (Q6V1X1 whole entry): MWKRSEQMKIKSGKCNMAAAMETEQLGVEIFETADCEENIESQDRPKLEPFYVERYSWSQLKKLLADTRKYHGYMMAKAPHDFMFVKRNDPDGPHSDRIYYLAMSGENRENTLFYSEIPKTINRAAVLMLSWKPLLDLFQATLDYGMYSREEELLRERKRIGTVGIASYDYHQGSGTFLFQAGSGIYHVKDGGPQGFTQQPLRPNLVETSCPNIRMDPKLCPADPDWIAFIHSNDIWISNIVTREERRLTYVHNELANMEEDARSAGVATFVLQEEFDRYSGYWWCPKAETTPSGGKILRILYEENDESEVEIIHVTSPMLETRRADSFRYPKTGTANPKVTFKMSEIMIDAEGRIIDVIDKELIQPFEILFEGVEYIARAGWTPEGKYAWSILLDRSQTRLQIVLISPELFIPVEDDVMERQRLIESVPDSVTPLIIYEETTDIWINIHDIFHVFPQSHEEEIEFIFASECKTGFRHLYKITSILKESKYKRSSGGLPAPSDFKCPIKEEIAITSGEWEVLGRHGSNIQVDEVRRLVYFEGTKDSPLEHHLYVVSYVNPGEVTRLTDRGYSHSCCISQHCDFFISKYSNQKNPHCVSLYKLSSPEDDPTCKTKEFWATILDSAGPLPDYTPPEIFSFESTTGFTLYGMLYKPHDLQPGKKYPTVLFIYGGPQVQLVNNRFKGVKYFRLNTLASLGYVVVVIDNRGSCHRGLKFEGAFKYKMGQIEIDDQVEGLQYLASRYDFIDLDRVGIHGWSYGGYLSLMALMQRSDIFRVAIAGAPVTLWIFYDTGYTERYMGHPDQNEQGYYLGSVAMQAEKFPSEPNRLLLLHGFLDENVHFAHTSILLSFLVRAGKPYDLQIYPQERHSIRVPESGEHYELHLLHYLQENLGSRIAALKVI
# Experimental: (§1) Enzyme activity of DPP4, DPP8, DPP9 (Proteros Biostructures GmbH, Germany) and PREP (Sigma Aldrich, USA) was determined by measuring the initial velocity of AMC release from the fluorogenic substrate GP-AMC (Sigma Aldrich, USA) using a Tecan Spark® 10 M multimode microplate reader (Tecan Group Ltd., Switzerland) in activity buffer (20 mM HEPES/KOH pH 7.3, 110 mM potassium acetate, 2 mM Mg acetate, 0.5 mM EGTA, 0.02% Tween 20, supplemented with 1 mM DTT) and a final volume of 20 μL for maximal 60 min at 30 °C. Prior to activity measurement, 10 nM enzyme was incubated for 45 min at 30 °C and gentle shaking with the inhibitor compounds in concentrations ranging from 0 to 100 μM. The compounds were dissolved in DMSO and diluted in activity buffer (final DMSO concentration: 1%). […] IC50 values were calculated using Graph-Pad Prism v10.2.3 using the equation: [Inhibitor] vs. response—Variable slope (four parameters). All measurements were performed in triplicates and error bars represent standard errors of the fit.
# DPP8 [2] = target: T1, DPP8; assay: Time-dependent DPP8 inhibition kinetics (kobs, KI, kinact, kapp); format: biochemical
# Experimental: (§2) To calculate the reaction rate of covalent bond formation between DPP proteins and inhibitor, kinact, KI and kapp was determined as previously described[30],[51]. Therefore, 250 µM GP-AMC was added simultaneously with a serial dilution of the inhibitor to 10 nM enzyme. Enzyme activity was measured for a maximum of 120 min at 30 °C, and fluorescence intensities were then plotted against time. Data was fitted to the following equation: Y=(vi/kobs)*(1−exp(−kobs*X)) using Graph-Pad Prism v10.2.3. The obtained pseudo-first-order rate constant was used to determine the maximum enzyme inhibition rate (kinact) and binding affinity (KI) by fitting the plot of kobs against inhibitor concentration to the following equation: Y=kinact/1+(KI/[I]) . The efficiency of covalent bond formation (kapp) was calculated by the ratio of kinact/KI. All measurements were performed in triplicates and error bars represent standard errors of the fit.
# [3] = test system: serine hydrolases (≡FP target proteins) in HEK293 cell lysates; assay: Competitive ABPP with fluorophosphonate-alkyne (≡FP) in HEK293 cell lysates; format: binding, H. sapiens; details: 50 µM pre-incubation 2 h, 2 µM ≡FP
# DPP9 [4] = target: T2, DPP9 (Homo sapiens, UniProt Q86TI2); assay: biochemical; format: biochemical; design: purchased Proteros Biostructures GmbH, Germany
# Experimental: as §1
# Target sequence in this assay (Q86TI2 whole entry): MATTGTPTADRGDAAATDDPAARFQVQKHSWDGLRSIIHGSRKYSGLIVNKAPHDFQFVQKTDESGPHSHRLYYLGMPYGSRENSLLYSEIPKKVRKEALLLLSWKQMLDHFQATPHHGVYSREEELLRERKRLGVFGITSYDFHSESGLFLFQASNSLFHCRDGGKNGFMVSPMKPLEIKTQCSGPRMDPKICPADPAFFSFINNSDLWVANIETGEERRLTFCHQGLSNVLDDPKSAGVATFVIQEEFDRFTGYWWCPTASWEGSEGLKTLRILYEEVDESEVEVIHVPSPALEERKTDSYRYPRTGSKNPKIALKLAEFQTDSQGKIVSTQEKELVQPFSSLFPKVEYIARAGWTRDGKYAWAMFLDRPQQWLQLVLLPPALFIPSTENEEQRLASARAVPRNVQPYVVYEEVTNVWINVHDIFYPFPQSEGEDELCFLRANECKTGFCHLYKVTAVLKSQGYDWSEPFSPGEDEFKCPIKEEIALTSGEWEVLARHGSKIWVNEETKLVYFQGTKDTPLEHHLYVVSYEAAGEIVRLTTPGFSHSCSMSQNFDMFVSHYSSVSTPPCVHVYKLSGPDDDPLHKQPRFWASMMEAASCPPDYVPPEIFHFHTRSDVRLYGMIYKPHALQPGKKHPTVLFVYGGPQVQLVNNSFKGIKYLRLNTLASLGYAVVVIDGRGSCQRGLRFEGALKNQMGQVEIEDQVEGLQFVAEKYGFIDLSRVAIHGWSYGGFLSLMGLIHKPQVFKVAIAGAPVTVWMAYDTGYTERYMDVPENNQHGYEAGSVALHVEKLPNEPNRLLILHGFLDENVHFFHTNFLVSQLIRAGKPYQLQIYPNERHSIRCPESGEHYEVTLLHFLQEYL
# DPP9 [5] = target: T2, DPP9; assay: Time-dependent DPP9 inhibition kinetics (kobs, KI, kinact, kapp); format: biochemical; design: purchased Proteros Biostructures GmbH, Germany
# Experimental: as §2
# Target sequence in this assay (Q86TI2 whole entry): as above
# DPP9 [6] = target: T2, DPP9; assay: Native MS of DPP9 dimer after incubation with inhibitor; details: 50 µM, 90 min
# Target sequence in this assay (Q86TI2 20-863): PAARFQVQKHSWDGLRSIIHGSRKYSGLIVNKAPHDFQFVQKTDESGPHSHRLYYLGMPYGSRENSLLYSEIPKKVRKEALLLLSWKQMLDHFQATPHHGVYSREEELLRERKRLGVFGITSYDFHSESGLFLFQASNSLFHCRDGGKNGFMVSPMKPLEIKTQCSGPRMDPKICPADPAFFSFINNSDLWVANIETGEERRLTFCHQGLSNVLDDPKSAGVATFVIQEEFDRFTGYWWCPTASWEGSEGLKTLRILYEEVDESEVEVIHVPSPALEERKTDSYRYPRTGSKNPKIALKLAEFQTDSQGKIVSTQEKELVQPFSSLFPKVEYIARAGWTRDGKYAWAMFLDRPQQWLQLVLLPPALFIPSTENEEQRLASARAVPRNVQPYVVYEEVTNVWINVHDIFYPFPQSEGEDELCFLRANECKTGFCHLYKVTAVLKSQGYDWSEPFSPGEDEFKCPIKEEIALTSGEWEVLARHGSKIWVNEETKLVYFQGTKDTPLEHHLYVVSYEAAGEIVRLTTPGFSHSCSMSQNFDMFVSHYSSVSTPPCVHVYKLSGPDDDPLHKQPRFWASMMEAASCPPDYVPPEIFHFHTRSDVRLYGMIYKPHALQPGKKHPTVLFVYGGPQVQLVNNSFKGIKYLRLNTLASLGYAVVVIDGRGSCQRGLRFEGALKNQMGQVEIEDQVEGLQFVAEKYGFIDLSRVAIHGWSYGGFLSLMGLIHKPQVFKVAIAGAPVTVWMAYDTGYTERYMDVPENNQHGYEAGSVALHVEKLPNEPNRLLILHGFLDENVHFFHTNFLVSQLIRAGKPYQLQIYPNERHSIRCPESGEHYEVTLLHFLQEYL
# Experimental: For this purpose, a rebuffering procedure using 10 kDa molecular weight cut-off spin-filter columns (Merck Millipore, USA) was applied for five cycles[58]. The resulting protein concentration was determined using microvolume spectroscopy (DS-11+, DeNovix, USA) and adjusted to 5 µM with 200 mM NH4OAc. […] A total number of 1000 MS spectra were recorded in positive EMR mode on an Exactive Plus EMR Orbitrap mass spectrometer (Thermo Fisher Scientific, USA) calibrated with CsI (2 mg mL^-1; Thermo Fisher Scientific, USA).
# UniDec software (version 6.0.4) was used for mass deconvolution[59]. For this purpose, the default settings were used within an m/z range of 6500 to 9500, with the exception of a higher deconvolution resolution (sample mass every 1 Da), a narrower peak detection window (peak detection range of 80 Da) and a total peak normalization. GraphPad Prism v8.0.1 was used for data visualization.
# HeLa wild-type cells [7] = assay: Cell viability assay (MTT), inhibitor alone; format: cell-based
# Experimental: (§3) HeLa wild-type (HeLa Flp-In T-REx WT, kind gift from Prof. Matthias Hentze) and HeLa DPP9^KO cells (prepared in-house) were cultured in DMEM (ThermoFisher, USA) supplemented with 10% FBS (PAN Biotech, Germany), 2 mM L-Glutamin (ThermoFisher, USA) and 1% Penicillin/Streptomycin (100 U mL^−1 Penicillin and 100 µg mL^−1 Streptomycin, ThermoFisher, USA). Cells were seeded in 96-well flat-bottom cell culture plates (Greiner, Germany) at a concentration of 5 × 10^3 cells per well (37 °C and 5% CO2). The indicated concentration of Mitomycin C (MMC, Merck) was added to the cells 24 h after seeding, together with 10 µM of the indicated inhibitor. The inhibitors were refreshed every 24 h. Control cells were treated with DMSO.
# (§4) Cell viability was measured 72 hours after the MMC treatment. For this, the medium was removed and replaced with phenol-red free DMEM (ThermoFisher, USA) containing 0.5 mg mL^−1 MTT (Sigma Aldrich, USA). Cells were incubated for 30 min at 37 °C, 5% CO2. Subsequently, the medium was removed and replaced by DMSO. The plates were shaken on an orbital shaker for 20 min before measuring the MTT signal on a CARIOstar Plus microplate reader (BMT labtech, Germany). Each experiment was performed three times, each in triplicates.
# HeLa wild-type cells [8] = assay: Cell viability assay (MTT), co-treatment with Mitomycin C; format: cell-based
# Experimental: as §3, §4
# DPP4 = target: T3, DPP4 (Homo sapiens, UniProt P27487); assay: biochemical; format: biochemical
# T3 construct: purchased Proteros Biostructures GmbH, Germany
# T3 sequence (P27487 whole entry): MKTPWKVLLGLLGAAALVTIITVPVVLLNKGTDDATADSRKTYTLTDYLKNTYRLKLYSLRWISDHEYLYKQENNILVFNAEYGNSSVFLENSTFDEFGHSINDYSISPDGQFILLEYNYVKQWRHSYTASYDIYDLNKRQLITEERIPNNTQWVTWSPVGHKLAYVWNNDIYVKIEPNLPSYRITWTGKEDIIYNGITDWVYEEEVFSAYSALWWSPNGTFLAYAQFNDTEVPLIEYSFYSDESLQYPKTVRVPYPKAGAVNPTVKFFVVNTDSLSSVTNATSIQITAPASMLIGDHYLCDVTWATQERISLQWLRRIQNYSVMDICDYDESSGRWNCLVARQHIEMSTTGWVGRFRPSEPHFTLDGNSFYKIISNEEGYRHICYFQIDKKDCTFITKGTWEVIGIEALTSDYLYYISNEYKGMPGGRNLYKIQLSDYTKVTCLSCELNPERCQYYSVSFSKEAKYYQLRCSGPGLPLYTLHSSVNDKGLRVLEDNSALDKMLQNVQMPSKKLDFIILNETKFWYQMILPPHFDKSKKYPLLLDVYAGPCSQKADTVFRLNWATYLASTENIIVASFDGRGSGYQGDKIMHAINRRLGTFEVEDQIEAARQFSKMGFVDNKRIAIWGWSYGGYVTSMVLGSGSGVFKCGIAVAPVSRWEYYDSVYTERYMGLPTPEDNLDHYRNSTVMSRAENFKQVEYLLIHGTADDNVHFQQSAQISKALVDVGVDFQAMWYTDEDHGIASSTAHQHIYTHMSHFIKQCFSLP
# Experimental: as §1
structure (smiles),measurement,setting,value
N[C@H]1CCCN([P@@](N)(=O)NS(=O)(=O)O)C1=O [Sulphostin],IC50,DPP8 [1],6.93 ± 0.62 µM
same,remaining activity at 1.5625 µM,"DPP8 [1]; read-out: DPP8 activity [%], c 1562.5 nM",93.5%
same,remaining activity at 3.125 µM,"DPP8 [1]; read-out: DPP8 activity [%], c 3125 nM",73.6%
same,remaining activity at 6.25 µM,"DPP8 [1]; read-out: DPP8 activity [%], c 6250 nM",47.7%
same,remaining activity at 25 µM,"DPP8 [1]; read-out: DPP8 activity [%], c 25000 nM",11.8%
same,remaining activity at 50 µM,"DPP8 [1]; read-out: DPP8 activity [%], c 50000 nM",5.62%
same,remaining activity at 100 µM,"DPP8 [1]; read-out: DPP8 activity [%], c 100000 nM",3.57%
same,kobs DPP8,DPP8 [2]; c 1.5625 µM,3.383e-05 s⁻¹
same,kobs DPP8,DPP8 [2]; c 6.25 µM,4.011e-05 s⁻¹
same,kobs DPP8,DPP8 [2]; c 25 µM,0.0001308 s⁻¹
same,kobs DPP8,DPP8 [2]; c 50 µM,0.0001589 s⁻¹
same,kapp DPP8,DPP8 [2]; ratio kinact/KI,11 M⁻¹ s⁻¹
same,KI (inactivation),"DPP8 [2]; read-out: KI [M] best fit DPP8, source data",2.11e-05 M
same,competition of ≡FP labeling,[3],significantly competed only the labeling of DPP8/9
same,IC50,DPP9 [4],1.39 ± 0.108 µM
same,remaining activity at 0.15625 µM,"DPP9 [4]; read-out: DPP9 activity [%], c 156.25 nM",93.2%
same,remaining activity at 0.3125 µM,"DPP9 [4]; read-out: DPP9 activity [%], c 312.5 nM",87.7%
same,remaining activity at 2.5 µM,"DPP9 [4]; read-out: DPP9 activity [%], c 2500 nM",28.5%
same,remaining activity at 5 µM,"DPP9 [4]; read-out: DPP9 activity [%], c 5000 nM",16.7%
same,remaining activity at 10 µM,"DPP9 [4]; read-out: DPP9 activity [%], c 10000 nM",10.8%
same,remaining activity at 25 µM,"DPP9 [4]; read-out: DPP9 activity [%], c 25000 nM",5%
same,remaining activity at 50 µM,"DPP9 [4]; read-out: DPP9 activity [%], c 50000 nM",3.52%
same,remaining activity at 100 µM,"DPP9 [4]; read-out: DPP9 activity [%], c 100000 nM",2.34%
same,kobs DPP9,DPP9 [5]; c 0.15625 µM,6.239e-05 s⁻¹
same,kobs DPP9,DPP9 [5]; c 5 µM,0.0002112 s⁻¹
same,kapp DPP9,DPP9 [5]; ratio kinact/KI,317 M⁻¹ s⁻¹
same,KI (inactivation),"DPP9 [5]; read-out: KI [M] best fit DPP9, source data",7.33e-07 M
same,Difference [Da] between doubly and singly modified DPP9 dimer,DPP9 [6],156 Da
same,Intensity [%] of DPP9 dimer with one modification,DPP9 [6],44.37%
same,Intensity [%] of DPP9 dimer with two modifications,DPP9 [6],32.64%
same,Intensity [%] of unmodified DPP9 dimer,DPP9 [6],22.99%
same,"increase of DPP9 molecular weight, both active sites of the dimer modified",DPP9 [6],311 Da
same,"increase of DPP9 molecular weight, first adduct (one active site of the dimer modified)",DPP9 [6],155 Da
N[C@@H](CC(=O)N1CCn2c(nnc2C(F)(F)F)C1)Cc1cc(F)c(F)cc1F [Sitagliptin],Cell viability normalized to mock treated cells + 0 µM MMC,"HeLa wild-type cells [7]; 0 µM MMC, individual replicate values (Supplementary Figure 11a)",87.835% (2×) and 113.478% (2×) and 105.575% (2×) and 118.346% (2×) and 103.264% (2×) and 91.1179% (2×) and 93.7454% (2×) and 87.0346% (2×) and 95.6216% (2×)
same,95% confidence interval of difference,"HeLa wild-type cells [7]; Figure 5d S11a, Ctrl. [-MMC] vs. compound [-MMC], Tukey's multiple comparisons test","-8,338 to 12,86"
same,cell viability normalized for each condition seperately to corresponsing [-MMC +inhibitor] control,"HeLa wild-type cells [8]; +MMC co-treatment, individual replicate values (Supplementary Figure 11b)",57.6636% and 68.4041% and 71.5915% and 62.1849% and 65.8665% and 55.7127% and 55.3675% and 52.3411% and 61.9483%
same,95% confidence interval of difference,"HeLa wild-type cells [8]; Figure 5d S11a, + Ctrl. [+MMC] vs. compound [+MMC], Tukey's multiple comparisons test","-7,015 to 14,19"
same,95% confidence interval of difference,"HeLa wild-type cells [8]; Figure S11b, Ctrl. vs. compound, Uncorrected Fisher's LSD","-3,548 to 10,07"
same,effect on cell viability / sensitivity to MMC,"HeLa wild-type cells [8]; HeLa wild-type, 1 µM MMC + 10 µM inhibitor, 72 h",no additional effect
"CC(C)[C@H](N)C(=O)N1CCC[C@H]1B(O)O [VbP, Val-boroPro, reference compound]",DPP4 activity [%],DPP4; c 1.6 nM,67.4885% and 113.658% and 85.6002%
same,DPP4 activity [%],DPP4; c 3.1 nM,70.6772% and 79.559% and 93.9074%
same,DPP4 activity [%],DPP4; c 6.3 nM,51.4161% and 71.0555% and 74.1702%
same,DPP4 activity [%],DPP4; c 25 nM,4.534% and 5.3397% and 4.7469%
same,DPP4 activity [%],DPP4; c 50 nM,3.474% and 3.265% and 3.283%
same,DPP4 activity [%],DPP4; c 100 nM,2.2772% and 2.383% and 2.483%
